Experimental data reported in PubChem BioAssay (NCI).
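Exposure lasted 48 hours, with cells grown in 96-well plates and compounds tested at five concentrations. At the TGI there is no net growth.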

Columns and labels:
Assay in all cases: growth of human tumour cells (NCI), 48 h
HOP-62 NSCLC = tested on: HOP-62 NSCLC
NCI-H226 lung = tested on: NCI-H226 lung
SN12C renal = tested on: SN12C renal
SF-295 CNS = tested on: SF-295 CNS
NCI-H522 lung = tested on: NCI-H522 lung
LOX IMVI melanoma = tested on: LOX IMVI melanoma
A498 renal = tested on: A498 renal
HCT-116 colon = tested on: HCT-116 colon
CAKI-1 renal = tested on: CAKI-1 renal
NCI/ADR-RES ovarian = tested on: NCI/ADR-RES ovarian
HOP-92 NSCLC = tested on: HOP-92 NSCLC
MDA-MB-435 = tested on: MDA-MB-435
SNB-19 CNS = tested on: SNB-19 CNS
RXF 393 renal = tested on: RXF 393 renal
UACC-257 melanoma = tested on: UACC-257 melanoma
SF-539 CNS = tested on: SF-539 CNS
IGROV1 ovarian = tested on: IGROV1 ovarian
DU-145 prostate = tested on: DU-145 prostate
SK-MEL-28 melanoma = tested on: SK-MEL-28 melanoma
OVCAR-8 ovarian = tested on: OVCAR-8 ovarian
HT29 colon = tested on: HT29 colon
OVCAR-3 ovarian = tested on: OVCAR-3 ovarian
T-47D breast = tested on: T-47D breast
UO-31 renal = tested on: UO-31 renal
A549 NSCLC = tested on: A549 NSCLC
EKVX NSCLC = tested on: EKVX NSCLC
MDA-MB-231 breast = tested on: MDA-MB-231 breast
OVCAR-4 ovarian = tested on: OVCAR-4 ovarian
MDA-N = tested on: MDA-N
SNB-75 CNS = tested on: SNB-75 CNS
MOLT-4 leukemia = tested on: MOLT-4 leukemia
786-0 renal = tested on: 786-0 renal
NCI-H460 lung = tested on: NCI-H460 lung
TK-10 renal = tested on: TK-10 renal
ACHN renal = tested on: ACHN renal
NCI-H23 lung = tested on: NCI-H23 lung
HCT-15 colon = tested on: HCT-15 colon
RPMI-8226 leukemia = tested on: RPMI-8226 leukemia
COLO 205 colon = tested on: COLO 205 colon
PC-3 prostate = tested on: PC-3 prostate
SK-MEL-5 melanoma = tested on: SK-MEL-5 melanoma
SK-MEL-2 melanoma = tested on: SK-MEL-2 melanoma
MCF7 breast = tested on: MCF7 breast
SF-268 CNS = tested on: SF-268 CNS
U251 CNS = tested on: U251 CNS
OVCAR-5 ovarian = tested on: OVCAR-5 ovarian
HCC-2998 colon = tested on: HCC-2998 colon
UACC-62 melanoma = tested on: UACC-62 melanoma
SW-620 colon = tested on: SW-620 colon
HL-60(TB) leukemia = tested on: HL-60(TB) leukemia
KM12 colon = tested on: KM12 colon
HS 578T breast = tested on: HS 578T breast
SK-OV-3 ovarian = tested on: SK-OV-3 ovarian
M14 melanoma = tested on: M14 melanoma
MALME-3M melanoma = tested on: MALME-3M melanoma
K-562 leukemia = tested on: K-562 leukemia
CCRF-CEM leukemia = tested on: CCRF-CEM leukemia
SR leukemia = tested on: SR leukemia

## N/C(=N/N=C/c1cc(Br)cc(Br)c1O)NO
HOP-62 NSCLC
  TGI: 25.9 µM
NCI-H226 lung
  TGI: 6.54 µM
SN12C renal
  TGI: 8.8 µM
SF-295 CNS
  TGI: > 45.9 µM
NCI-H522 lung
  TGI: 88.6 µM
LOX IMVI melanoma
  TGI: 19.8 µM
A498 renal
  TGI: 16 µM
HCT-116 colon
  TGI: 44 µM
CAKI-1 renal
  TGI: 2.54 µM
NCI/ADR-RES ovarian
  TGI: 18.9 µM
HOP-92 NSCLC
  TGI: 25.2 µM
MDA-MB-435
  TGI: > 81.2 µM
SNB-19 CNS
  TGI: > 80.7 µM
RXF 393 renal
  TGI: 53.4 µM
UACC-257 melanoma
  TGI: 99.5 µM
SF-539 CNS
  TGI: > 31.9 µM
IGROV1 ovarian
  TGI: 4.66 µM
DU-145 prostate
  TGI: > 23.8 µM
SK-MEL-28 melanoma
  TGI: > 100 µM
OVCAR-8 ovarian
  TGI: > 25.4 µM
HT29 colon
  TGI: > 100 µM
OVCAR-3 ovarian
  TGI: 13.1 µM
T-47D breast
  TGI: 11.2 µM
UO-31 renal
  TGI: 8.4 µM
A549 NSCLC
  TGI: 53.7 µM
EKVX NSCLC
  TGI: 75.1 µM
MDA-MB-231 breast
  TGI: 40.6 µM
OVCAR-4 ovarian
  TGI: 71.4 µM
MDA-N
  TGI: > 100 µM
SNB-75 CNS
  TGI: > 28.3 µM
MOLT-4 leukemia
  TGI: 5.58 µM
786-0 renal
  TGI: > 40.7 µM
NCI-H460 lung
  TGI: 27.5 µM
TK-10 renal
  TGI: > 45.6 µM
ACHN renal
  TGI: 9.66 µM
NCI-H23 lung
  TGI: > 80.2 µM
HCT-15 colon
  TGI: > 46.6 µM
RPMI-8226 leukemia
  TGI: 15.7 µM
COLO 205 colon
  TGI: 49.8 µM
PC-3 prostate
  TGI: > 59 µM
SK-MEL-5 melanoma
  TGI: 38.5 µM
SK-MEL-2 melanoma
  TGI: 82.9 µM
MCF7 breast
  TGI: > 89.3 µM
SF-268 CNS
  TGI: 8.75 µM
U251 CNS
  TGI: > 100 µM
OVCAR-5 ovarian
  TGI: > 100 µM
HCC-2998 colon
  TGI: > 53.8 µM
UACC-62 melanoma
  TGI: 7.52 µM
SW-620 colon
  TGI: > 100 µM
HL-60(TB) leukemia
  TGI: 2.31 µM
KM12 colon
  TGI: 51.4 µM
HS 578T breast
  TGI: > 75.3 µM
SK-OV-3 ovarian
  TGI: > 47.6 µM
M14 melanoma
  TGI: 12.3 µM
MALME-3M melanoma
  TGI: 17.1 µM
K-562 leukemia
  TGI: 21.5 µM
CCRF-CEM leukemia
  TGI: 3.26 µM

## CC1CN=C(N(C(=O)Nc2ccccc2)c2ccccc2)S1 (stereo not given)
HOP-62 NSCLC
  TGI: > 100 µM
SN12C renal
  TGI: 62.9 µM
SF-295 CNS
  TGI: > 100 µM
LOX IMVI melanoma
  TGI: 37.4 µM
A498 renal
  TGI: 51.2 µM
HCT-116 colon
  TGI: > 100 µM
CAKI-1 renal
  TGI: > 100 µM
NCI/ADR-RES ovarian
  TGI: 71.5 µM
SR leukemia
  TGI: 81.5 µM
SNB-19 CNS
  TGI: > 100 µM
UACC-257 melanoma
  TGI: 64.7 µM
IGROV1 ovarian
  TGI: > 100 µM
DU-145 prostate
  TGI: > 100 µM
SK-MEL-28 melanoma
  TGI: 31.9 µM
OVCAR-8 ovarian
  TGI: > 100 µM
HT29 colon
  TGI: 36.6 µM
OVCAR-3 ovarian
  TGI: 82.2 µM
T-47D breast
  TGI: > 100 µM
UO-31 renal
  TGI: > 100 µM
A549 NSCLC
  TGI: > 100 µM
EKVX NSCLC
  TGI: > 100 µM
MDA-MB-231 breast
  TGI: > 100 µM
OVCAR-4 ovarian
  TGI: > 100 µM
MDA-N
  TGI: 48.2 µM
SNB-75 CNS
  TGI: > 100 µM
MOLT-4 leukemia
  TGI: 61.6 µM
786-0 renal
  TGI: > 100 µM
NCI-H460 lung
  TGI: > 100 µM
TK-10 renal
  TGI: 94.2 µM
ACHN renal
  TGI: > 100 µM
NCI-H23 lung
  TGI: > 100 µM
HCT-15 colon
  TGI: > 100 µM
RPMI-8226 leukemia
  TGI: 67.9 µM
COLO 205 colon
  TGI: > 100 µM
PC-3 prostate
  TGI: > 100 µM
SK-MEL-5 melanoma
  TGI: 31.8 µM
SK-MEL-2 melanoma
  TGI: 40.5 µM
MCF7 breast
  TGI: 49.7 µM
SF-268 CNS
  TGI: > 100 µM
U251 CNS
  TGI: > 100 µM
OVCAR-5 ovarian
  TGI: > 100 µM
HCC-2998 colon
  TGI: > 100 µM
SW-620 colon
  TGI: > 100 µM
HL-60(TB) leukemia
  TGI: 66.4 µM
KM12 colon
  TGI: > 100 µM
HS 578T breast
  TGI: > 100 µM
SK-OV-3 ovarian
  TGI: > 100 µM
MALME-3M melanoma
  TGI: 58.8 µM
K-562 leukemia
  TGI: > 100 µM
CCRF-CEM leukemia
  TGI: 64 µM

## CC(NNC(=S)N1CCCCCC1)c1cccnn1 (stereo not given)
HOP-62 NSCLC
  TGI: > 32.5 µM
NCI-H226 lung
  TGI: > 43.4 µM
SN12C renal
  TGI: > 100 µM
SF-295 CNS
  TGI: > 39.6 µM
LOX IMVI melanoma
  TGI: > 100 µM
A498 renal
  TGI: 9.82 µM
CAKI-1 renal
  TGI: > 100 µM
NCI/ADR-RES ovarian
  TGI: > 88.8 µM
SR leukemia
  TGI: > 100 µM
MDA-MB-435
  TGI: > 56.2 µM
RXF 393 renal
  TGI: 0.57 µM
UACC-257 melanoma
  TGI: 3.77 µM
SF-539 CNS
  TGI: 0.939 µM
DU-145 prostate
  TGI: > 100 µM
SK-MEL-28 melanoma
  TGI: > 34.5 µM
OVCAR-8 ovarian
  TGI: > 100 µM
HT29 colon
  TGI: > 100 µM
OVCAR-3 ovarian
  TGI: > 100 µM
T-47D breast
  TGI: > 35.1 µM
UO-31 renal
  TGI: 2.67 µM
MDA-MB-231 breast
  TGI: > 100 µM
MDA-N
  TGI: > 100 µM
SNB-75 CNS
  TGI: > 43.4 µM
MOLT-4 leukemia
  TGI: > 100 µM
786-0 renal
  TGI: > 100 µM
NCI-H460 lung
  TGI: > 21.6 µM
TK-10 renal
  TGI: > 33.3 µM
ACHN renal
  TGI: 3.09 µM
NCI-H23 lung
  TGI: > 100 µM
HCT-15 colon
  TGI: > 100 µM
RPMI-8226 leukemia
  TGI: > 100 µM
COLO 205 colon
  TGI: > 100 µM
PC-3 prostate
  TGI: > 100 µM
SK-MEL-5 melanoma
  TGI: 2.31 µM
SK-MEL-2 melanoma
  TGI: > 78.8 µM
MCF7 breast
  TGI: 0.901 µM
U251 CNS
  TGI: > 80.4 µM
HCC-2998 colon
  TGI: > 100 µM
UACC-62 melanoma
  TGI: 1.14 µM
SW-620 colon
  TGI: > 100 µM
HL-60(TB) leukemia
  TGI: > 32.2 µM
KM12 colon
  TGI: > 100 µM
HS 578T breast
  TGI: > 100 µM
SK-OV-3 ovarian
  TGI: 20.7 µM
M14 melanoma
  TGI: 4.94 µM
MALME-3M melanoma
  TGI: > 100 µM
K-562 leukemia
  TGI: > 58.7 µM
CCRF-CEM leukemia
  TGI: 1.1 µM
